Test results: US5231089A, “Method of improving oral bioavailability of carbamazepine” (priority 1992, dated 1993)
Where two headings read alike, the source gives them in different places.

What was measured:
[1] = dog, in vivo
[2] = cited from earlier work; for solubilization in water: 15 mg/mL hydroxypropyl-β-cyclodextrin (Uekama et al)
[3] = cited from earlier work; for Absolute bioavailability: 100 mg 2% oral suspension vs intravenous infusion (Gerardin et al)
[4] = tested on: maximal electroshock seizure (MES) test models; conditions: in vivo; cited from earlier work
[5] = tested on: generalized tonic-clonic seizures; conditions: human, in vivo; cited from earlier work
[6] = cited from earlier work
[7] = with water-soluble β-cyclodextrin epichlorohydrin polymer; cited from earlier work
[8] = in vivo; cited from earlier work
[9] = healthy human subjects (Neuvonen et al)

## NC(=O)N1c2ccccc2C=Cc2ccccc21 [TEGRETOL]
[1]
  coefficient of variation around the AUC: 78%
  coefficient of variation of Cmax: 71%

## NC(=O)N1c2ccccc2C=Cc2ccccc21 [carbamazepine, 5H-dibenz[b,f]azepine-5-carboxamide]
[2]; no cyclodextrin
  water solubility of carbamazepine: extremely poor water solubility
[3]; Australian tablets 1977 vs since 1980 (Eadie et al)
  total bioavailability (area under the curve): no significant difference in total bioavailability
[3]; Goodman and Gilman
  oral absorption, adequacy: adequate
[3]; epileptic patients (Monaco et al)
  plasma levels, 200 or 400 mg tablets: no difference in plasma levels
[3]; [9]
  absorption, rectal versus oral: significantly slower
  total bioavailability, rectal versus oral: similar
[3]; healthy male volunteers (Gerardin et al)
  bioavailability from the oral suspension versus intravenous: equivalent
[3]; rate/regularity, in words
  oral absorption: slow and somewhat erratic
[3]; subject 1
  Absolute bioavailability: 102.3%
[3]; subject 2
  Absolute bioavailability: 100.1%
[4]
  effectiveness in MES test models: effective
[5]
  efficacy in generalized tonic-clonic seizures (grand mal): proven efficacy
[6]; effects associated with phenytoin
  gingival hypertropy, hirsutism, acne: does not precipitate
[6]; human, in vivo
  Therapeutic plasma levels: 4 to 10 µg/mL
  level at which diplopia, dizziness, drowsiness and ataxia occur: above 6 μg/mL
  sedation: less sedating
  serum level at which nystagmus may occur: below the therapeutic range

## CCCCCCNC(=O)n1cc(F)c(=O)[nH]c1=O [carmofur]
[2]
  solubilization in water: improved solubilization

## C[C@H]1O[C@@H](O[C@H]2[C@@H](O)C[C@H](O[C@H]3[C@@H](O)C[C@H](O[C@H]4CC[C@@]5(C)[C@H](CC[C@@H]6[C@@H]5C[C@@H](O)[C@]5(C)[C@@H](C7=CC(=O)OC7)CC[C@]65O)C4)O[C@@H]3C)O[C@@H]2C)C[C@H](O)[C@@H]1O [digoxin]
[2]
  solubilization in water: improved solubilization

## CC(C(=O)O)c1ccc(-c2ccccc2)c(F)c1 (stereo not shown) [flurbiprofen]
[2]
  solubilization in water: improved solubilization

## COc1ccc2c(c1)c(CC(=O)O)c(C)n2C(=O)c1ccc(Cl)cc1 [indomethacin]
[2]
  solubilization in water: improved solubilization

## O=C1NC(=O)C(c2ccccc2)(c2ccccc2)N1 [phenytoin]
[2]
  solubilization in water: improved solubilization
[7]
  dissolution and absorption: Improvements

## C[C@]12C=CC(=O)C=C1CC[C@@H]1[C@@H]2[C@@H](O)C[C@@]2(C)[C@H]1CC[C@]2(O)C(=O)CO [prednisolone]
[2]
  solubilization in water: improved solubilization

## CC(=O)[C@H]1CC[C@H]2[C@@H]3CCC4=CC(=O)CC[C@]4(C)[C@H]3CC[C@]12C [progesterone]
[2]
  solubilization in water: improved solubilization

## C[C@]12CC[C@H]3[C@@H](CCC4=CC(=O)CC[C@@]43C)[C@@H]1CC[C@@H]2O [testosterone]
[2]
  solubilization in water: improved solubilization

## OC[C@H]1O[C@@H]2O[C@H]3[C@H](O)[C@@H](O)[C@@H](O[C@H]4[C@H](O)[C@@H](O)[C@@H](O[C@H]5[C@H](O)[C@@H](O)[C@@H](O[C@H]6[C@H](O)[C@@H](O)[C@@H](O[C@H]7[C@H](O)[C@@H](O)[C@@H](O[C@H]8[C@H](O)[C@@H](O)[C@@H](O[C@H]1[C@H](O)[C@H]2O)O[C@@H]8CO)O[C@@H]7CO)O[C@@H]6CO)O[C@@H]5CO)O[C@@H]4CO)O[C@@H]3CO [β-cyclodextrin]
[2]; 25° C.
  aqueous solubility: about 1.8 % w/v
[8]
  nephrotoxicity: nephrotoxicity

## OC[C@H]1O[C@@H]2O[C@H]3[C@H](O)[C@@H](O)[C@@H](O[C@H]4[C@H](O)[C@@H](O)[C@@H](O[C@H]5[C@H](O)[C@@H](O)[C@@H](O[C@H]6[C@H](O)[C@@H](O)[C@@H](O[C@H]7[C@H](O)[C@@H](O)[C@@H](O[C@H]8[C@H](O)[C@@H](O)[C@@H](O[C@H]9[C@H](O)[C@@H](O)[C@@H](O[C@H]1[C@H](O)[C@H]2O)O[C@@H]9CO)O[C@@H]8CO)O[C@@H]7CO)O[C@@H]6CO)O[C@@H]5CO)O[C@@H]4CO)O[C@@H]3CO [γ-cyclodextrin]
[2]; Brewster et al
  effect on the water solubility of carbamazepine: significantly enhance
